{"source": "ChEMBL document CHEMBL1201862", "about": "“PubChem BioAssay data set” (2004)", "experiment_in_all_cases": "DTP human tumour cell line panel, 48 h", "key": {"[1]": {"test_system": "UACC-257"}, "[2]": {"test_system": "SNB-78"}, "[3]": {"test_system": "SF-295"}, "[4]": {"test_system": "UACC-62"}, "[5]": {"test_system": "Malme-3M"}, "[6]": {"test_system": "CAKI-1"}, "[7]": {"test_system": "HOP-92"}, "[8]": {"test_system": "SF-539"}, "[9]": {"test_system": "SK-MEL-5"}, "[10]": {"test_system": "CCRF-CEM"}, "[11]": {"test_system": "IGROV-1"}, "[12]": {"test_system": "SK-OV-3"}, "[13]": {"test_system": "COLO 205"}, "[14]": {"test_system": "RPMI-8226"}, "[15]": {"test_system": "HCC 2998"}, "[16]": {"test_system": "DMS-114"}, "[17]": {"test_system": "HOP-18"}, "[18]": {"test_system": "NCI-H23"}, "[19]": {"test_system": "KM12"}, "[20]": {"test_system": "A549"}, "[21]": {"test_system": "NCI-H460"}, "[22]": {"test_system": "SNB-75"}, "[23]": {"test_system": "HT-29"}, "[24]": {"test_system": "SF-268"}, "[25]": {"test_system": "SNB-19"}, "[26]": {"test_system": "LOX IMVI"}, "[27]": {"test_system": "SK-MEL-2"}, "[28]": {"test_system": "K562"}, "[29]": {"test_system": "OVCAR-8"}, "[30]": {"test_system": "NCI-H522"}, "[31]": {"test_system": "NCI/ADR-RES"}, "[32]": {"test_system": "SN12C"}, "[33]": {"test_system": "M19-MEL"}, "[34]": {"test_system": "UO-31"}, "[35]": {"test_system": "OVCAR-5"}, "[36]": {"test_system": "HL-60"}, "[37]": {"test_system": "NCI-H226"}, "[38]": {"test_system": "U-251"}, "[39]": {"test_system": "RXF 393"}, "[40]": {"test_system": "KM-20L2"}, "[41]": {"test_system": "DMS-273"}, "[42]": {"test_system": "HCT-116"}, "[43]": {"test_system": "A498"}, "[44]": {"test_system": "XF498"}, "[45]": {"test_system": "DLD-1"}, "[46]": {"test_system": "SK-MEL-28"}, "[47]": {"test_system": "OVCAR-4"}, "[48]": {"test_system": "OVCAR-3"}, "[49]": {"test_system": "MCF7"}, "[50]": {"test_system": "EKVX"}, "[51]": {"test_system": "SW-620"}, "[52]": {"test_system": "MOLT-4"}, "[53]": {"test_system": "HCT-15"}, "[54]": {"test_system": "HOP-62"}}, "note": "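Growth conditions: 96-well plates. Treatment: test compound, 48 hours, 5 concentrations. Analysis: linear interpolation between bracketing concentrations; unreached endpoints set to highest concentration. GI50 = concentration required for 50% inhibition of growth.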 The source made the active and inactive calls. No stated cut-off is given here; in the data, active = GI50 up to about 1.1 µM and inactive = higher."}
{"smiles": "COc1cccc2c1C(=O)c1c(O)c3c(c(O)c1C2=O)CC(O)(C(C)=O)CC3O", "note": "(stereo not drawn)", "values": [{"measurement": "GI50", "setting": "[1]", "result": "10.6 µM (inactive)"}, {"measurement": "GI50", "setting": "[2]", "result": "9.18 µM (inactive)"}, {"measurement": "GI50", "setting": "[3]", "result": "5.73 µM (inactive)"}, {"measurement": "GI50", "setting": "[4]", "result": "5.58 µM (inactive)"}, {"measurement": "GI50", "setting": "[5]", "result": "4.56 µM (inactive)"}, {"measurement": "GI50", "setting": "[6]", "result": "4.61 µM (inactive)"}, {"measurement": "GI50", "setting": "[7]", "result": "7.11 µM (inactive)"}, {"measurement": "GI50", "setting": "[8]", "result": "4.74 µM (inactive)"}, {"measurement": "GI50", "setting": "[9]", "result": "2.16 µM (inactive)"}, {"measurement": "GI50", "setting": "[10]", "result": "1.88 µM (inactive)"}, {"measurement": "GI50", "setting": "[11]", "result": "3.44 µM (inactive)"}, {"measurement": "GI50", "setting": "[12]", "result": "11.5 µM (inactive)"}, {"measurement": "GI50", "setting": "[13]", "result": "3.02 µM (inactive)"}, {"measurement": "GI50", "setting": "[14]", "result": "2.18 µM (inactive)"}, {"measurement": "GI50", "setting": "[15]", "result": "7.24 µM (inactive)"}, {"measurement": "GI50", "setting": "[16]", "result": "6.97 µM (inactive)"}, {"measurement": "GI50", "setting": "[17]", "result": "22.6 µM (inactive)"}, {"measurement": "GI50", "setting": "[18]", "result": "4.88 µM (inactive)"}, {"measurement": "GI50", "setting": "[19]", "result": "6.17 µM (inactive)"}, {"measurement": "GI50", "setting": "[20]", "result": "6.55 µM (inactive)"}, {"measurement": "GI50", "setting": "[21]", "result": "1.56 µM (inactive)"}, {"measurement": "GI50", "setting": "[22]", "result": "9.68 µM (inactive)"}, {"measurement": "GI50", "setting": "[23]", "result": "6.04 µM (inactive)"}, {"measurement": "GI50", "setting": "[24]", "result": "4.23 µM (inactive)"}, {"measurement": "GI50", "setting": "[25]", "result": "6.03 µM (inactive)"}, {"measurement": "GI50", "setting": "[26]", "result": "1.63 µM (inactive)"}, {"measurement": "GI50", "setting": "[27]", "result": "8.07 µM (inactive)"}, {"measurement": "GI50", "setting": "[28]", "result": "4.34 µM (inactive)"}, {"measurement": "GI50", "setting": "[29]", "result": "2.84 µM (inactive)"}, {"measurement": "GI50", "setting": "[30]", "result": "1.03 µM (active)"}, {"measurement": "GI50", "setting": "[31]", "result": "5.68 µM (inactive)"}, {"measurement": "GI50", "setting": "[32]", "result": "3.8 µM (inactive)"}, {"measurement": "GI50", "setting": "[33]", "result": "5.79 µM (inactive)"}, {"measurement": "GI50", "setting": "[34]", "result": "9.57 µM (inactive)"}, {"measurement": "GI50", "setting": "[35]", "result": "10.5 µM (inactive)"}, {"measurement": "GI50", "setting": "[36]", "result": "3.6 µM (inactive)"}, {"measurement": "GI50", "setting": "[37]", "result": "5.56 µM (inactive)"}, {"measurement": "GI50", "setting": "[38]", "result": "4.03 µM (inactive)"}, {"measurement": "GI50", "setting": "[39]", "result": "5.98 µM (inactive)"}, {"measurement": "GI50", "setting": "[40]", "result": "6.85 µM (inactive)"}, {"measurement": "GI50", "setting": "[41]", "result": "2.3 µM (inactive)"}, {"measurement": "GI50", "setting": "[42]", "result": "2.41 µM (inactive)"}, {"measurement": "GI50", "setting": "[43]", "result": "1 µM (active)"}, {"measurement": "GI50", "setting": "[44]", "result": "0.537 µM (active)"}, {"measurement": "GI50", "setting": "[45]", "result": "6.85 µM (inactive)"}, {"measurement": "GI50", "setting": "[46]", "result": "12.7 µM (inactive)"}, {"measurement": "GI50", "setting": "[47]", "result": "6.34 µM (inactive)"}, {"measurement": "GI50", "setting": "[48]", "result": "7.8 µM (inactive)"}, {"measurement": "GI50", "setting": "[49]", "result": "1.01 µM (active)"}, {"measurement": "GI50", "setting": "[50]", "result": "4.9 µM (inactive)"}, {"measurement": "GI50", "setting": "[51]", "result": "2.33 µM (inactive)"}, {"measurement": "GI50", "setting": "[52]", "result": "1.98 µM (inactive)"}, {"measurement": "GI50", "setting": "[53]", "result": 9.23, "unit": "µM"}, {"measurement": "GI50", "setting": "[54]", "result": "2.14 µM (inactive)"}]}
{"smiles": "C=C1C(=O)OCC2C(C(=O)O)=CC3C(C)C(C)=CC123", "note": "(stereo not drawn)", "values": [{"measurement": "GI50", "setting": "[1]", "result": "16.7 µM (inactive)"}, {"measurement": "GI50", "setting": "[2]", "result": "14.8 µM (inactive)"}, {"measurement": "GI50", "setting": "[3]", "result": "15 µM (inactive)"}, {"measurement": "GI50", "setting": "[4]", "result": "5.41 µM (inactive)"}, {"measurement": "GI50", "setting": "[5]", "result": "7.33 µM (inactive)"}, {"measurement": "GI50", "setting": "[6]", "result": "19.6 µM (inactive)"}, {"measurement": "GI50", "setting": "[7]", "result": "10.6 µM (inactive)"}, {"measurement": "GI50", "setting": "[8]", "result": "8.51 µM (inactive)"}, {"measurement": "GI50", "setting": "[9]", "result": "9.31 µM (inactive)"}, {"measurement": "GI50", "setting": "[10]", "result": "7.74 µM (inactive)"}, {"measurement": "GI50", "setting": "[11]", "result": "11.9 µM (inactive)"}, {"measurement": "GI50", "setting": "[12]", "result": "16.4 µM (inactive)"}, {"measurement": "GI50", "setting": "[13]", "result": "10.6 µM (inactive)"}, {"measurement": "GI50", "setting": "[14]", "result": "7.23 µM (inactive)"}, {"measurement": "GI50", "setting": "[15]", "result": "10.2 µM (inactive)"}, {"measurement": "GI50", "setting": "[16]", "result": "7.69 µM (inactive)"}, {"measurement": "GI50", "setting": "[17]", "result": "12.2 µM (inactive)"}, {"measurement": "GI50", "setting": "[18]", "result": "8.36 µM (inactive)"}, {"measurement": "GI50", "setting": "[19]", "result": "9.93 µM (inactive)"}, {"measurement": "GI50", "setting": "[20]", "result": "20.7 µM (inactive)"}, {"measurement": "GI50", "setting": "[21]", "result": "9.14 µM (inactive)"}, {"measurement": "GI50", "setting": "[22]", "result": "13.9 µM (inactive)"}, {"measurement": "GI50", "setting": "[23]", "result": "11.1 µM (inactive)"}, {"measurement": "GI50", "setting": "[24]", "result": "9.46 µM (inactive)"}, {"measurement": "GI50", "setting": "[25]", "result": "11.8 µM (inactive)"}, {"measurement": "GI50", "setting": "[26]", "result": "8.13 µM (inactive)"}, {"measurement": "GI50", "setting": "[27]", "result": "7.21 µM (inactive)"}, {"measurement": "GI50", "setting": "[28]", "result": "10.2 µM (inactive)"}, {"measurement": "GI50", "setting": "[29]", "result": "9.59 µM (inactive)"}, {"measurement": "GI50", "setting": "[30]", "result": "2.31 µM (inactive)"}, {"measurement": "GI50", "setting": "[31]", "result": "8.26 µM (inactive)"}, {"measurement": "GI50", "setting": "[32]", "result": "8.73 µM (inactive)"}, {"measurement": "GI50", "setting": "[33]", "result": "14.7 µM (inactive)"}, {"measurement": "GI50", "setting": "[34]", "result": "14 µM (inactive)"}, {"measurement": "GI50", "setting": "[35]", "result": "27.5 µM (inactive)"}, {"measurement": "GI50", "setting": "[36]", "result": "9.33 µM (inactive)"}, {"measurement": "GI50", "setting": "[37]", "result": "19.1 µM (inactive)"}, {"measurement": "GI50", "setting": "[38]", "result": "11 µM (inactive)"}, {"measurement": "GI50", "setting": "[39]", "result": "7.4 µM (inactive)"}, {"measurement": "GI50", "setting": "[40]", "result": "11.9 µM (inactive)"}, {"measurement": "GI50", "setting": "[41]", "result": "18.5 µM (inactive)"}, {"measurement": "GI50", "setting": "[42]", "result": "9.48 µM (inactive)"}, {"measurement": "GI50", "setting": "[43]", "result": "7.8 µM (inactive)"}, {"measurement": "GI50", "setting": "[44]", "result": "12.5 µM (inactive)"}, {"measurement": "GI50", "setting": "[45]", "result": "11 µM (inactive)"}, {"measurement": "GI50", "setting": "[46]", "result": "3.52 µM (inactive)"}, {"measurement": "GI50", "setting": "[47]", "result": "8.32 µM (inactive)"}, {"measurement": "GI50", "setting": "[48]", "result": "12.4 µM (inactive)"}, {"measurement": "GI50", "setting": "[49]", "result": "8.13 µM (inactive)"}, {"measurement": "GI50", "setting": "[50]", "result": "21.7 µM (inactive)"}, {"measurement": "GI50", "setting": "[51]", "result": "9.31 µM (inactive)"}, {"measurement": "GI50", "setting": "[52]", "result": "7.82 µM (inactive)"}, {"measurement": "GI50", "setting": "[53]", "result": 11, "unit": "µM"}, {"measurement": "GI50", "setting": "[54]", "result": "12.2 µM (inactive)"}]}
